Results reported in US20220112233A1, “METHOD FOR PRODUCING PEPTIDE COMPOUND, PROTECTIVE GROUP-FORMING REAGENT, AND CONDENSED POLYCYCLIC AROMATIC HYDROCARBON COMPOUND” (FUJIFILM CORPORATION, priority 2019, published 2022).

Test: Solution stability of N-protected and C-protected amino acid
Assay type: physicochemical
Settings: N-protected and C-protected amino acid (Fmoc-Leu condensed with the listed compound) in tetrahydrofuran and acetic acid, room temperature, three days; amount remaining (survival rate)
Experimental: The obtained N-protected and C-protected amino acid (10 mg) and 2,6-di-tert-butyl-4-methylphenol (internal standard: 8 mg) were dissolved in a tetrahydrofuran solution (20 mL) and acetic acid (2 mL), respectively, and after allowing time to pass at room temperature for three days, the amount of remaining N-protected and C-protected amino acid was determined and evaluated based on the following standard.
Regarding the evaluation of the solution stability, a case of “B” or higher was regarded as acceptable.
It can be said that, as the solution stability is higher, peptide stability is high, side reactions can be suppressed, and yield is excellent.
—Evaluation Standard— • “A”: survival rate was 99% or more. • “B”: survival rate was 97% or more and less than 99%. • “C”: survival rate was 95% or more and less than 97%. • “D”: survival rate was less than 95%.

## CCCCCCCCCCCCCCCCCCCCCCOc1cc(COc2ccc3cc(C(O)c4ccc(OC)cc4)ccc3c2)cc(OCCCCCCCCCCCCCCCCCCCCCC)c1 (centres unmarked) [Compound (1-2)]
  Solution stability: A (survival rate was 99% or more)

## CCCCCCCCCCCCCCCCCCCCCCOc1ccc(C(O)c2ccc(OCCCCCCCCCCCCCCCCCCCCCC)cc2)cc1 [Comparative compound (1-1)]
  Solution stability: C (survival rate was 95% or more and less than 97%)
